Literature values as cited in US20100143437A1, “IMPLANTABLE ANALGESIC” (priority 2008, published 2010).

Conditions: in adults

Compound: CCCCN1CCCCC1C(=O)Nc1c(C)cccc1C (stereo not shown) [bupivacaine, 1-butyl-N-(2,6-dimethylphenyl) piperidine-2-carboxamide]
- half life: approximately 210 minutes
